Data: patent US10167262B2, “Herbicidal substituted 3-arylpyrazoles” (FMC CORPORATION, priority 2014, dated 2019)

Legend:
Assay type in all cases: in vivo
[1] = test system: waterhemp_RES2, (ALS & HPPD resistant common waterhemp, Amaranthus rudis); assay: Test E postemergence greenhouse test, plant response rating 0-100; settings: scale 0 to 100
In short: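 Resistant waterhemp biotypes grown in peat/vermiculite medium and treated postemergence at 2–18 cm height (1- to 4-leaf stage). Kept in greenhouse 14 to 21 days, then visually rated against untreated controls on a 0–100 scale (0 no effect, 100 complete control).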

[2] = test system: hairy beggarticks (Bidens pilosa); assay: Test E pre-/postemergence greenhouse test, plant response rating 0-100; settings: scale 0 to 100; for Beggarticks plant response rating: Preemergence
In short: (§1)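 Visual control score, 0–100 relative to untreated plants, recorded 14–21 days after spraying. Treatments: preemergence on silt loam seedbeds and postemergence at the 1- to 4-leaf stage, with compound in surfactant-containing solvent.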

[3] = test system: palmer pigweed (Amaranthus palmeri); assay: as above; settings: scale 0 to 100; for Pigweed, Palmer plant response rating: Preemergence
In short: as §1

[4] = test system: field bindweed (Convolvulus arvensis); assay: as above; settings: scale 0 to 100; for Field Bindweed plant response rating: Preemergence
In short: as §1

[5] = test system: arrowleaf sida (Sida rhombifolia); assay: as above; settings: for Arrowleaf Sida plant response rating: Preemergence
In short: as §1

[6] = test system: Brazilian crabgrass (Digitaria horizontalis); assay: as above; settings: scale 0 to 100; for Crabgrass, Brazil plant response rating: Preemergence
In short: as §1

[7] = test system: Italian ryegrass (Lolium multiflorum); assay: as above; settings: scale 0 to 100; for Ryegrass, Italian plant response rating: Preemergence
In short: as §1

[8] = test system: fall panicum (Panicum dichotomiflorum); assay: as above; settings: scale 0 to 100; for Panicum, Fall plant response rating: Preemergence
In short: as §1

[9] = test system: wild poinsettia (Euphorbia heterophylla); assay: as above; settings: scale 0 to 100; for Poinsettia, Wild plant response rating: Preemergence
In short: as §1

corn (Zea mays) = assay: as above; settings: scale 0 to 100; for Corn plant response rating: Preemergence
In short: as §1

[10] = test system: dayflower (Virginia (VA) dayflower, Commelina virginica); assay: as above; settings: scale 0 to 100; for Dayflower, VA plant response rating: Preemergence
In short: as §1

[11] = test system: waterhemp (common waterhemp, Amaranthus rudis); assay: as above; settings: scale 0 to 100; for Waterhemp plant response rating: Preemergence
In short: as §1

Structure (SMILES): C#CCn1cc(C(=O)c2ccccc2)c(-c2cc(Cl)cc(Cl)c2)n1 [Compound 39, [3-(3,5-dichlorophenyl)-1-(2-propyn-1-yl)-1H-pyrazol-4-yl]phenylmethanone]
- Plant response rating, Waterhemp_RES2 ([1]; 31 g ai/ha): 70
- Plant response rating, Waterhemp_RES2 ([1]; 62 g ai/ha): 75
- Plant response rating, Waterhemp_RES2 ([1]; 125 g ai/ha): 85
- Plant response rating, Waterhemp_RES2 ([1]; 250 g ai/ha): 90
- Plant response rating, Waterhemp_RES2 ([1]; 500 g ai/ha): 90
- pest or weed control at 31 g/ha ([2]; Bidens pilosa, post-emergence, Postemergence, 31 g ai/ha): 80%
- pest or weed control at 62 g/ha ([2]; Bidens pilosa, post-emergence, Postemergence, 62 g ai/ha): 85%
- pest or weed control at 125 g/ha ([2]; Bidens pilosa, post-emergence, Postemergence, 125 g ai/ha): 90%
- pest or weed control at 250 g/ha ([2]; Bidens pilosa, post-emergence, Postemergence, 250 g ai/ha): 95%
- pest or weed control at 500 g/ha ([2]; Bidens pilosa, post-emergence, Postemergence, 500 g ai/ha): 95%
- Beggarticks plant response rating ([2]; 62 g ai/ha): 0
- Beggarticks plant response rating ([2]; 125 g ai/ha): 0
- Beggarticks plant response rating ([2]; 250 g ai/ha): 0
- Beggarticks plant response rating ([2]; 500 g ai/ha): 0
- pest or weed control at 31 g/ha ([3]; Amaranthus palmeri, post-emergence, Postemergence, 31 g ai/ha): 70%
- pest or weed control at 62 g/ha ([3]; Amaranthus palmeri, post-emergence, Postemergence, 62 g ai/ha): 80%
- pest or weed control at 125 g/ha ([3]; Amaranthus palmeri, post-emergence, Postemergence, 125 g ai/ha): 80%
- pest or weed control at 250 g/ha ([3]; Amaranthus palmeri, post-emergence, Postemergence, 250 g ai/ha): 85%
- pest or weed control at 500 g/ha ([3]; Amaranthus palmeri, post-emergence, Postemergence, 500 g ai/ha): 98%
- Pigweed, Palmer plant response rating ([3]; 62 g ai/ha): 20
- Pigweed, Palmer plant response rating ([3]; 125 g ai/ha): 50
- Pigweed, Palmer plant response rating ([3]; 250 g ai/ha): 90
- Pigweed, Palmer plant response rating ([3]; 500 g ai/ha): 85
- pest or weed control at 31 g/ha ([4]; Convolvulus arvensis, post-emergence, Postemergence, 31 g ai/ha): 0%
- pest or weed control at 62 g/ha ([4]; Convolvulus arvensis, post-emergence, Postemergence, 62 g ai/ha): 0%
- pest or weed control at 125 g/ha ([4]; Convolvulus arvensis, post-emergence, Postemergence, 125 g ai/ha): 0%
- pest or weed control at 250 g/ha ([4]; Convolvulus arvensis, post-emergence, Postemergence, 250 g ai/ha): 10%
- pest or weed control at 500 g/ha ([4]; Convolvulus arvensis, post-emergence, Postemergence, 500 g ai/ha): 10%
- Field Bindweed plant response rating ([4]; 62 g ai/ha): 0
- Field Bindweed plant response rating ([4]; 125 g ai/ha): 0
- Field Bindweed plant response rating ([4]; 250 g ai/ha): 0
- Field Bindweed plant response rating ([4]; 500 g ai/ha): 0
- Arrowleaf Sida plant response rating ([5]; 62 g ai/ha, scale 0 to 100): 0
- Arrowleaf Sida plant response rating ([5]; 125 g ai/ha, scale 0 to 100): 90
- Arrowleaf Sida plant response rating ([5]; 250 g ai/ha, scale 0 to 100): 95
- Arrowleaf Sida plant response rating ([5]; 500 g ai/ha, scale 0 to 100): 95
- pest or weed control at 31 g/ha ([5]; Sida rhombifolia, post-emergence, Postemergence, 31 g ai/ha, scale 0 to 100): 75%
- pest or weed control at 62 g/ha ([5]; Sida rhombifolia, post-emergence, Postemergence, 62 g ai/ha, scale 0 to 100): 80%
- pest or weed control at 125 g/ha ([5]; Sida rhombifolia, post-emergence, Postemergence, 125 g ai/ha, scale 0 to 100): 85%
- pest or weed control at 250 g/ha ([5]; Sida rhombifolia, post-emergence, Postemergence, 250 g ai/ha, scale 0 to 100): 90%
- pest or weed control at 500 g/ha ([5]; Sida rhombifolia, post-emergence, Postemergence, 500 g ai/ha, scale 0 to 100 (0 no effect, 100 complete control)): 90%
- pest or weed control at 31 g/ha ([6]; Digitaria horizontalis, post-emergence, Postemergence, 31 g ai/ha, read-out: Plant response rating, Crabgrass, Brazil): 0%
- pest or weed control at 62 g/ha ([6]; Digitaria horizontalis, post-emergence, Postemergence, 62 g ai/ha, read-out: Plant response rating, Crabgrass, Brazil): 0%
- pest or weed control at 125 g/ha ([6]; Digitaria horizontalis, post-emergence, Postemergence, 125 g ai/ha, read-out: Plant response rating, Crabgrass, Brazil): 0%
- pest or weed control at 250 g/ha ([6]; Digitaria horizontalis, post-emergence, Postemergence, 250 g ai/ha, read-out: Plant response rating, Crabgrass, Brazil): 0%
- pest or weed control at 500 g/ha ([6]; Digitaria horizontalis, post-emergence, Postemergence, 500 g ai/ha, read-out: Plant response rating, Crabgrass, Brazil): 5%
- Crabgrass, Brazil plant response rating ([6]; 62 g ai/ha): 0
- Crabgrass, Brazil plant response rating ([6]; 125 g ai/ha): 0
- Crabgrass, Brazil plant response rating ([6]; 250 g ai/ha): 0
- Crabgrass, Brazil plant response rating ([6]; 500 g ai/ha): 0
- pest or weed control at 31 g/ha ([7]; Lolium multiflorum, post-emergence, Postemergence, 31 g ai/ha): 0%
- pest or weed control at 62 g/ha ([7]; Lolium multiflorum, post-emergence, Postemergence, 62 g ai/ha): 0%
- pest or weed control at 125 g/ha ([7]; Lolium multiflorum, post-emergence, Postemergence, 125 g ai/ha): 0%
- pest or weed control at 250 g/ha ([7]; Lolium multiflorum, post-emergence, Postemergence, 250 g ai/ha): 0%
- pest or weed control at 500 g/ha ([7]; Lolium multiflorum, post-emergence, Postemergence, 500 g ai/ha): 0%
- Ryegrass, Italian plant response rating ([7]; 62 g ai/ha): 0
- Ryegrass, Italian plant response rating ([7]; 125 g ai/ha): 0
- Ryegrass, Italian plant response rating ([7]; 250 g ai/ha): 0
- Ryegrass, Italian plant response rating ([7]; 500 g ai/ha): 0
- pest or weed control at 31 g/ha ([8]; Panicum dichotomiflorum, post-emergence, Postemergence, 31 g ai/ha): 0%
- pest or weed control at 62 g/ha ([8]; Panicum dichotomiflorum, post-emergence, Postemergence, 62 g ai/ha): 0%
- pest or weed control at 125 g/ha ([8]; Panicum dichotomiflorum, post-emergence, Postemergence, 125 g ai/ha): 0%
- pest or weed control at 250 g/ha ([8]; Panicum dichotomiflorum, post-emergence, Postemergence, 250 g ai/ha): 0%
- pest or weed control at 500 g/ha ([8]; Panicum dichotomiflorum, post-emergence, Postemergence, 500 g ai/ha): 0%
- Panicum, Fall plant response rating ([8]; 62 g ai/ha): 0
- Panicum, Fall plant response rating ([8]; 250 g ai/ha): 0
- pest or weed control at 31 g/ha ([9]; Euphorbia heterophylla, post-emergence, Postemergence, 31 g ai/ha, read-out: Plant response rating, Poinsettia, Wild): 0%
- pest or weed control at 62 g/ha ([9]; Euphorbia heterophylla, post-emergence, Postemergence, 62 g ai/ha, read-out: Plant response rating, Poinsettia, Wild): 0%
- pest or weed control at 125 g/ha ([9]; Euphorbia heterophylla, post-emergence, Postemergence, 125 g ai/ha, read-out: Plant response rating, Poinsettia, Wild): 0%
- pest or weed control at 250 g/ha ([9]; Euphorbia heterophylla, post-emergence, Postemergence, 250 g ai/ha, read-out: Plant response rating, Poinsettia, Wild): 0%
- pest or weed control at 500 g/ha ([9]; Euphorbia heterophylla, post-emergence, Postemergence, 500 g ai/ha, read-out: Plant response rating, Poinsettia, Wild): 10%
- Poinsettia, Wild plant response rating ([9]; 62 g ai/ha): 0
- Poinsettia, Wild plant response rating ([9]; 125 g ai/ha): 0
- Poinsettia, Wild plant response rating ([9]; 250 g ai/ha): 0
- Poinsettia, Wild plant response rating ([9]; 500 g ai/ha): 0
- Corn plant response rating (corn (Zea mays); 62 g ai/ha): 0
- Corn plant response rating (corn (Zea mays); 125 g ai/ha): 0
- Corn plant response rating (corn (Zea mays); 250 g ai/ha): 0
- Corn plant response rating (corn (Zea mays); 500 g ai/ha): 0
- Corn plant response rating (crop injury, 0 = no effect, 100 = complete kill) at 31 g/ha (corn (Zea mays); Zea mays, post-emergence, Postemergence, 31 g ai/ha): 0%
- Corn plant response rating (crop injury, 0 = no effect, 100 = complete kill) at 62 g/ha (corn (Zea mays); Zea mays, post-emergence, Postemergence, 62 g ai/ha): 0%
- Corn plant response rating (crop injury, 0 = no effect, 100 = complete kill) at 125 g/ha (corn (Zea mays); Zea mays, post-emergence, Postemergence, 125 g ai/ha): 0%
- Corn plant response rating (crop injury, 0 = no effect, 100 = complete kill) at 250 g/ha (corn (Zea mays); Zea mays, post-emergence, Postemergence, 250 g ai/ha): 0%
- Corn plant response rating (crop injury, 0 = no effect, 100 = complete kill) at 500 g/ha (corn (Zea mays); Zea mays, post-emergence, Postemergence, 500 g ai/ha): 0%
- pest or weed control at 31 g/ha ([10]; Commelina virginica, post-emergence, Postemergence, 31 g ai/ha): 0%
- pest or weed control at 62 g/ha ([10]; Commelina virginica, post-emergence, Postemergence, 62 g ai/ha): 0%
- pest or weed control at 125 g/ha ([10]; Commelina virginica, post-emergence, Postemergence, 125 g ai/ha): 0%
- pest or weed control at 250 g/ha ([10]; Commelina virginica, post-emergence, Postemergence, 250 g ai/ha): 0%
- pest or weed control at 500 g/ha ([10]; Commelina virginica, post-emergence, Postemergence, 500 g ai/ha): 0%
- Dayflower, VA plant response rating ([10]; 62 g ai/ha): 0
- Dayflower, VA plant response rating ([10]; 125 g ai/ha): 0
- Dayflower, VA plant response rating ([10]; 250 g ai/ha): 0
- Dayflower, VA plant response rating ([10]; 500 g ai/ha): 0
- pest or weed control at 31 g/ha ([11]; Amaranthus tuberculatus, post-emergence, Postemergence, 31 g ai/ha): 80%
- pest or weed control at 125 g/ha ([11]; Amaranthus tuberculatus, post-emergence, Postemergence, 125 g ai/ha): 90%
- pest or weed control at 250 g/ha ([11]; Amaranthus tuberculatus, post-emergence, Postemergence, 250 g ai/ha): 95%
- pest or weed control at 500 g/ha ([11]; Amaranthus tuberculatus, post-emergence, Postemergence, 500 g ai/ha): 98%
- Waterhemp plant response rating ([11]; 62 g ai/ha): 85
- Waterhemp plant response rating ([11]; 125 g ai/ha): 95
- Waterhemp plant response rating ([11]; 250 g ai/ha): 100
- Waterhemp plant response rating ([11]; 500 g ai/ha): 100
